The target in the experiment is T1, haematopoietic prostaglandin D synthase (H-PGDS) (Homo sapiens, UniProt O60760).
T1 construct: Full length human H-PGDS cDNA (Invitrogen Ultimate ORF IOH13026) was amplified by PCR; 6-His (N); TEV protease cleavage site (N); made in house; host or cells: E. coli BL21 (DE3*)
Briefly: H-PGDS RapidFire high throughput mass spectrometry assay (conversion of PGH2 to PGD2). Type of experiment: biochemical. The settings on record: 10 nM H-PGDS, PGH2 formed in situ by COX-2 from arachidonic acid; four parameter curve fit; read-out: Potency Range (mean pIC50) (converted). As for the experimental part: The H-PGDS RapidFire™ mass spectrometric assay monitors conversion of prostaglandin H2 (PGH2) to prostaglandin D2 (PGD2) by haematopoietic prostaglandin D synthase (H-PGDS). In the assay format described here, the substrate (PGH2) is formed in situ by the action of cyclooxygenase-2 on arachidonic acid. This first step is set up to be fast, and generates a burst of PGH2 at ˜10 μM. The PGH2 is then further converted to PGD2 by the H-PGDS enzyme. […] Plates are then read on the RapidFire™ high throughput solid phase extraction system (Agilent) which incorporates a solid phase extraction step coupled to a triple quadrupole mass spectrometer (AB SCIEX). Relative levels of PGD2 and PGF2α, which acts as a surrogate for substrate, are measured and a percent conversion calculated. Inhibitors are characterised as compounds which lower the conversion of PGH2 to PGD2.
Full length human H-PGDS cDNA (Invitrogen Ultimate ORF IOH13026) was amplified by PCR with the addition of a 5′ 6-His tag and TEV protease cleavage site. The PCR product was digested with NdeI and XhoI and ligated into pET22b+ (Merck Novagen®). Expression was carried out in E. coli strain BL21 (DE3*) using auto-induction Overnight Express™ Instant TB medium (Merck Novagen®) supplemented with 1% glycerol. The culture was first grown at 37° C. and the temperature was reduced to 25° C. when OD600 reached 2.0. Cells were harvested by centrifugation after a further 18 hours. 10 g of E. coli cell pellet was suspended to a total volume of 80 mL in lysis buffer (20 mM Tris-Cl pH 7.5, 300 mM NaCl, 20 mM imidazole, 5 mM β-mercaptoethanol, 10% glycerol). 1 mg/mL protease inhibitors (Protease Inhibitor Cocktail Set III, Merck Calbiochem®) and 1 mg/mL lysozyme were added to the cell suspension. The suspension was then sonicated for 5 min (UltraSonic Processor VCX 750, Cole-Parmer Instrument Co.) with a micro probe (50% amplitude, 10 sec on/off) and then centrifuged at 100,000 g for 90 minutes (at 4° C.). The supernatant was loaded onto a Ni-NTA HiTrap column (5 mL, GE Healthcare, pre-equilibrated in lysis buffer). The column was washed with 10 column volumes of lysis buffer and eluted with lysis buffer containing 500 mM imidazole. The pooled protein peak fractions were concentrated using a 10 kDa centrifugal filter at 3500 g and 4° C. (Amicon Ultra-15 centrifugal filter unit with Ultracel-10 membrane from Millipore). Further purification of the concentrated protein was carried out using gel filtration chromatography on a HiLoad 26/600 Superdex 75 preparative grade column (GE Healthcare Life Sciences) using 50 mM Tris pH 7.5, 50 mM NaCl, 1 mM dithiothreitol, 1 mM MgCl2. Fractions containing the protein were pooled, concentrated as described above, and stored at −80° C.
The full length human COX-2 gene (accession number L15326) was amplified by PCR to generate an EcoRI—HindIII fragment containing an in-frame FLAG tag. This was subcloned into pFastBac 1 (Invitrogen). The COX-2 FLAG plasmid was recombined into the baculovirus genome according to the BAC-to-BAC protocol described by Invitrogen. Transfection into Spodoptera frugiperda (Sf9) insect cells was performed using Cellfectin (Invitrogen), according to the manufacturer's protocol. Super Sf9 cells were cultured in EX420 media (SAFC Biosciences) to a density of approximately 1.5×10^6 cells/mL within a wave bioreactor. Recombinant virus was added at a Multiplicity of Infection (MOI) of 5 and the culture was allowed to continue for 3 days. Cells were harvested using a continuous feed centrifuge run at 2500 g at a rate of approximately 2 L/min with cooling. The resultant cell slurry was re-centrifuged in pots (2500 g, 20 min, 4° C.) and the cell paste was stored at −80° C. 342 g of cell paste was re-suspended to a final volume of 1600 mL in a buffer of 20 mM Tris-Cl pH 7.4, 150 mM NaCl, 0.1 mM EDTA, 1.3% w/v n-octyl-[…] containing 20 Complete EDTA-free Protease Inhibitor Cocktail tablets (Roche Applied Science). […]

Here are results for 24 compounds from US11149035B2, “Chemical compounds as H—PGDS inhibitors” (GlaxoSmithKline Intellectual Property Development Limited, priority 2017, dated 2021).

T1 sequence (O60760 whole entry): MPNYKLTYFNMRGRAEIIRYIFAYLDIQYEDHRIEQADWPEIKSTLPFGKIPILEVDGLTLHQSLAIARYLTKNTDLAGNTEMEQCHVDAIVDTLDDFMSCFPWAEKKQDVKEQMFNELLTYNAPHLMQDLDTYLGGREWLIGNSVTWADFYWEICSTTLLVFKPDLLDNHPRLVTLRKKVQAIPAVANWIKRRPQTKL

Regarding `CC(C)(O)[C@H]1CC[C@H](NC(=O)c2cnc3cc(N4CC(F)C4)ncc3c2)CC1` [Example 3, 7-(3-Fluoroazetidin-1-yl)-N-(trans-4-(2-hydroxypropan-2-yl)cyclohexyl)-1,6-naphthyridine-3-carboxamide], the IC50 is 10 to 79.4 nM.

As to `C[C@]1(O)C[C@H](NC(=O)c2cnc3nc(C4CC4)ccc3c2)C1` [Example 46, 7-Cyclopropyl-N-((1r,3s)-3-hydroxy-3-methylcyclobutyl)-1,8-naphthyridine-3-carboxamide], the IC50 is 100 to 1000 nM.

Turning to `C[C@]1(O)C[C@H](NC(=O)c2cnc3cc(C4CC4)ncc3c2)C1` [Example 41, 7-Cyclopropyl-N-((1r,3s)-3-hydroxy-3-methylcyclobutyl)-1,6-naphthyridine-3-carboxamide], the IC50 was 100 to 1000 nM.

On to `CC(C)(O)[C@H]1CC[C@H](NC(=O)c2cnc3nc(C4CCC4)ccc3c2)CC1` [Example 72, 7-Cyclobutyl-N-(trans-4-(2-hydroxypropan-2-yl)cyclohexyl)-1,8-naphthyridine-3-carboxamide], for which the IC50 is 10 to 79.4 nM.

On to `O=C(N[C@H]1CC[C@@](O)(C(F)F)CC1)c1cnc2nc(C3CC3)ccc2c1` [Example 52, 7-Cyclopropyl-N-((1r,4r)-4-(difluoromethyl)-4-hydroxycyclohexyl)-1,8-naphthyridine-3-carboxamide], for which the IC50 is 100 to 1000 nM.

As to `CC(C)(O)[C@H]1C[C@H](NC(=O)c2cnc3nc(C4CC4)ccc3c2)C1` [Example 47, 7-Cyclopropyl-N-(trans-3-(2-hydroxypropan-2-yl)cyclobutyl)-1,8-naphthyridine-3-carboxamide], the IC50 was 10 to 79.4 nM.

As to `C[C@]1(O)CC[C@H](NC(=O)c2cnc3cc(C4CC4)ncc3c2)CC1` [Example 30, 7-Cyclopropyl-N-((1r,4r)-4-hydroxy-4-methylcyclohexyl)-1,6-naphthyridine-3-carboxamide], the IC50 is 100 to 1000 nM.

In the case of `CC(C)(O)[C@H]1CC[C@H](NC(=O)c2cnc3ccncc3c2)CC1` [Example 1, N-(trans-4-(2-Hydroxypropan-2-yl)cyclohexyl)-1,6-naphthyridine-3-carboxamide], the IC50 is 1260 to 10000 nM.

As for `C[C@H]1CCN1c1cc2ncc(C(=O)N[C@H]3C[C@@](C)(O)C3)cc2cn1` [Example 23, N-((1s,3R)-3-Hydroxy-3-methylcyclobutyl)-7-((S)-2-methylazetidin-1-yl)-1,6-naphthyridine-3-carboxamide], the IC50 was 100 to 1000 nM.

As for `C[C@H]1CCN1c1cc2ncc(C(=O)NC3CCN(C(=O)C(C)(C)O)CC3)cc2cn1` [Example 24, (S)—N-(1-(2-Hydroxy-2-methylpropanoyl)piperidin-4-yl)-7-(2-methylazetidin-1-yl)-1,6-naphthyridine-3-carboxamide], the IC50 is 10 to 79.4 nM.

Turning to `CSc1ncc2cc(C(=O)N[C@H]3CC[C@H](C(C)(C)O)CC3)cnc2n1` [Example 70, N-(trans-4-(2-Hydroxypropan-2-yl)cyclohexyl)-2-(methylthio)pyrido[2,3-d]pyrimidine-6-carboxamide], the IC50 was less than 10 nM.

As for `CC(C)(O)[C@H]1CC[C@H](NC(=O)c2cnc3nc(N4CC(F)C4)ccc3c2)CC1` [Example 6, 7-(3-Fluoroazetidin-1-yl)-N-(trans-4-(2-hydroxypropan-2-yl)cyclohexyl)-1,8-naphthyridine-3-carboxamide], the IC50 was 10 to 79.4 nM.

In the case of `CC(C)(O)[C@H]1CC[C@H](NC(=O)c2cnc3cc(N4CCC4)ncc3c2)CC1` [Example 4, 7-(Azetidin-1-yl)-N-(trans-4-(2-hydroxypropan-2-yl)cyclohexyl)-1,6-naphthyridine-3-carboxamide], the IC50 was less than 10 nM.

Regarding `C[C@H]1CCN1c1cc2ncc(C(=O)N[C@H]3CCNC3=O)cc2cn1` [Example 22, 7-((S)-2-Methylazetidin-1-yl)-N—((S)-2-oxopyrrolidin-3-yl)-1,6-naphthyridine-3-carboxamide], the IC50 is 10 to 79.4 nM.

Take `O=C(N[C@H]1CC[C@H](N2CC(F)(F)C2)CC1)c1cnc2cc(C3CC3)ncc2c1` [Example 38, 7-Cyclopropyl-N-(trans-4-(3,3-difluoroazetidin-1-yl)cyclohexyl)-1,6-naphthyridine-3-carboxamide]: the IC50 was 10 to 79.4 nM.

With `C[C@H]1CCN1c1nc2ncc(C(=O)N[C@H]3CC[C@](C)(O)CC3)cc2cc1Cl` [Example 59, 6-Chloro-N-((1r,4s)-4-hydroxy-4-methylcyclohexyl)-7-((S)-2-methylazetidin-1-yl)-1,8-naphthyridine-3-carboxamide], the IC50 was less than 10 nM.

`C[C@H]1CCN1c1nc2ncc(C(=O)N[C@H]3CCNC3=O)cc2cc1Cl` [Example 60, 6-Chloro-7-((S)-2-methylazetidin-1-yl)-N—((S)-2-oxopyrrolidin-3-yl)-1,8-naphthyridine-3-carboxamide]: the IC50 was less than 10 nM.

In the case of `C[C@H]1CCN1c1nc2ncc(C(=O)N[C@H]3C[C@](O)(C(F)(F)F)C3)cc2cc1Cl` [Example 66, 6-Chloro-N-((1s,3R)-3-hydroxy-3-(trifluoromethyl)cyclobutyl)-7-((S)-2-methylazetidin-1-yl)-1,8-naphthyridine-3-carboxamide], the IC50 was less than 10 nM.

In the case of `C[C@@H]1CCN1c1cc2ncc(C(=O)N[C@H]3CC[C@H](C(C)(C)O)CC3)cc2cn1` [Example 12, N-(trans-4-(2-Hydroxypropan-2-yl)cyclohexyl)-7-((R)-2-methylazetidin-1-yl)-1,6-naphthyridine-3-carboxamide], the IC50 was 100 to 1000 nM.

For the compound `O=C(N[C@H]1C[C@@H](N[C@H](CO)C(F)(F)F)C1)c1cnc2cc(C3CC3)ncc2c1` [Example 42, 7-Cyclopropyl-N-(cis-3-(((R)-1,1,1-trifluoro-3-hydroxypropan-2-yl)amino)cyclobutyl)-1,6-naphthyridine-3-carboxamide], the IC50 is 100 to 1000 nM.

On to `C[C@]1(O)C[C@@H](NC(=O)c2cnc3cc(C4CC4)ncc3c2)C1` [Example 31, 7-Cyclopropyl-N-((1s,3s)-3-hydroxy-3-methylcyclobutyl)-1,6-naphthyridine-3-carboxamide], for which the IC50 was 100 to 1000 nM.

As to `C[C@H]1CCN1c1cc2ncc(C(=O)N[C@H]3CC[C@H](C(C)(C)O)CC3)cc2cn1` [Example 13, N-(trans-4-(2-Hydroxypropan-2-yl)cyclohexyl)-7-((S)-2-methylazetidin-1-yl)-1,6-naphthyridine-3-carboxamide], the IC50 was less than 10 nM.

On to `CC(C)(O)[C@H]1CC[C@H](NC(=O)c2cnc3nc(NCC(F)(F)F)ccc3c2)CC1` [Example 17, N-(trans-4-(2-Hydroxypropan-2-yl)cyclohexyl)-7-((2,2,2-trifluoroethyl)amino)-1,8-naphthyridine-3-carboxamide], for which the IC50 is 100 to 1000 nM.

Regarding `C[C@H]1CCN1c1nc2ncc(C(=O)N[C@H]3C[C@H](C(C)(C)O)C3)cc2cc1Cl` [Example 65, 6-Chloro-N-(trans-3-(2-hydroxypropan-2-yl)cyclobutyl)-7-((S)-2-methylazetidin-1-yl)-1,8-naphthyridine-3-carboxamide], the IC50 is less than 10 nM.
